Assays:
[1] = Tariquidar plasma concentrations during PET scan 2; assay type: in vivo, human
[2] = Adverse reactions during tariquidar infusion; assay type: in vivo, human
Pgp at the human BBB [3] = settings: humans, tariquidar 6 mg/kg body weight; cited from earlier work
human Pgp = human Pgp (Homo sapiens, UniProt P08183); experiment: Inhibition of transport of [^3H]verapamil by human Pgp; assay type: biochemical
Pgp at the human BBB [4] = settings: cited from earlier work
[5] = cited from earlier work

Chain of human Pgp (P08183 whole entry): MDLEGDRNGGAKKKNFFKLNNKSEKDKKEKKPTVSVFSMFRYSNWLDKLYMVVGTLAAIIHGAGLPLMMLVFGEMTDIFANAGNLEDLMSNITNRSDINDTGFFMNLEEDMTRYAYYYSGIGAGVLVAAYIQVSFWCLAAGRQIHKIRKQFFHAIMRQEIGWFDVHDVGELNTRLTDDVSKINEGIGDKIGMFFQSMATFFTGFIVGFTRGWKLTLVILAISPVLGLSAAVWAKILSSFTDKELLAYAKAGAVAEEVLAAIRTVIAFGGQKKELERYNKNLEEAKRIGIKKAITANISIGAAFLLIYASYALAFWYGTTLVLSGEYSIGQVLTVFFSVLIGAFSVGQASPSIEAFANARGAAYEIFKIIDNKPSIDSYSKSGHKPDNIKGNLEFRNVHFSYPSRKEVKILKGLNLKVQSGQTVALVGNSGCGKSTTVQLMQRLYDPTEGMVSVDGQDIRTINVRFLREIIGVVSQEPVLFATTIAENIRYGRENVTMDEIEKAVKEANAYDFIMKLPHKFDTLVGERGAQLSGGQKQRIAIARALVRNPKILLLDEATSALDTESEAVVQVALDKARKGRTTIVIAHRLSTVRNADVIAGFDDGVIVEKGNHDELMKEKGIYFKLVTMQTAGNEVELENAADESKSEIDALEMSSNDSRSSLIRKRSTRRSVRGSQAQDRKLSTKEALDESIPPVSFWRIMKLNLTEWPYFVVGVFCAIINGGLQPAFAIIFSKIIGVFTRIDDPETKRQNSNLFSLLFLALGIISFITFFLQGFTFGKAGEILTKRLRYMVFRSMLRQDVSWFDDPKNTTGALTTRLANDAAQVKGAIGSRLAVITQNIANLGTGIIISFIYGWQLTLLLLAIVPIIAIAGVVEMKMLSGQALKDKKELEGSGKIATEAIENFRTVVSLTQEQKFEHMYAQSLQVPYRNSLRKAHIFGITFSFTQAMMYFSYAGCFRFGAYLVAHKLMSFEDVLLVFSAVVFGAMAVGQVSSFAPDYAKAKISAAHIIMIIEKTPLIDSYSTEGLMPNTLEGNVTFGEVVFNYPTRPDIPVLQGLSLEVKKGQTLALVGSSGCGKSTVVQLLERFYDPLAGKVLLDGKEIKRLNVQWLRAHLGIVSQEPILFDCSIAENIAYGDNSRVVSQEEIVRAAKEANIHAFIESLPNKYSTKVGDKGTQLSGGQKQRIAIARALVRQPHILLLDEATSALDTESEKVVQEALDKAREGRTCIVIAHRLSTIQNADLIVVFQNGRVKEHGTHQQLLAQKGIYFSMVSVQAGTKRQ

Mean tariquidar plasma concentration during the PET scan ([1]; continuous i.v. infusion, mean dose 5.9±1.0 mg/kg, mean±s.d.): 2,873±517 nmol/L
Mean tariquidar plasma concentration, times higher than in previous study ([1]; versus previous study ref 7): 2–3 times
Ki (human Pgp): 8.5 nM
Compound: COc1cc2c(cc1OC)CN(CCc1ccc(NC(=O)c3cc(OC)c(OC)cc3NC(=O)c3cnc4ccccc4c3)cc1)CC2 [tariquidar]
Subjects with mild adverse reactions most likely related to tariquidar ([2]; five healthy men, mean dose 5.9±1.0 mg/kg i.v. infusion): four out of five subjects
Dizziness, N subjects ([2]; of five subjects): 1
Metallic taste in the mouth, N subjects ([2]; of five subjects): 3
Increase in brain distribution of [^11C]N-desmethyl-loperamide (Pgp at the human BBB [3]): 223%
Increase in brain distribution of (R)-[^11C]verapamil (Pgp at the human BBB [4]; humans, tariquidar 6 mg/kg body weight): 129%
EC50 (Pgp at the human BBB [4]; read-out: Previously estimated EC50 of tariquidar in humans, enhancement of brain uptake of (R)-[^11C]verapamil): 868 nM
Fraction of unbound tariquidar in human plasma [5]: 0.0063±0.0021
